The series relates to CCRIS mutagenicity, Ames/micronucleus/aberration tests. In words: CCRIS mutagenicity studies.
[1] abbreviates: Test System: AMES SALMONELLA TYPHIMURIUM, Strain/Indicator: TA98, Metabolic Activation: NONE, Method: STANDARD PLATE.
Setting [2] is: Test System: AMES SALMONELLA TYPHIMURIUM, Strain/Indicator: TA1535, Metabolic Activation: NONE, Method: STANDARD PLATE.
Setting [3] is: Test System: AMES SALMONELLA TYPHIMURIUM, Strain/Indicator: TA1537, Metabolic Activation: NONE, Method: STANDARD PLATE.
Where [4] appears, read: Test System: AMES SALMONELLA TYPHIMURIUM, Strain/Indicator: TA100, Metabolic Activation: NONE, Method: STANDARD PLATE.
Setting [5] is: Test System: AMES SALMONELLA TYPHIMURIUM, Strain/Indicator: TA98, Metabolic Activation: RAT, LIVER, S-9, AROCLOR 1254, Method: STANDARD PLATE.
Where [6] appears, read: Test System: AMES SALMONELLA TYPHIMURIUM, Strain/Indicator: TA100, Metabolic Activation: RAT, LIVER, S-9, AROCLOR 1254, Method: STANDARD PLATE.
The mark [7] stands for this setting: Test System: AMES SALMONELLA TYPHIMURIUM, Strain/Indicator: TA1535, Metabolic Activation: RAT, LIVER, S-9, AROCLOR 1254, Method: STANDARD PLATE.
[8] abbreviates: Test System: AMES SALMONELLA TYPHIMURIUM, Strain/Indicator: TA1537, Metabolic Activation: RAT, LIVER, S-9, AROCLOR 1254, Method: STANDARD PLATE.
[9] abbreviates: Test System: AMES SALMONELLA TYPHIMURIUM, Strain/Indicator: TA1538, Metabolic Activation: NONE, Method: STANDARD PLATE.

In PubChem BioAssay AID1259407 (Chemical Carcinogenesis Research Information System (CCRIS), 2018) one finds mutagenic call data, which are given here for 9 molecules.

Molecules are shown by their SMILES. Calls of active or inactive are those of the source. How the calls were made is not given here.

Regarding `OC1=c2c(O)cc3cccc4ccc(c2c43)C23CCCCC12O3` (centres undefined), the mutagenic call (Test System: CHINESE HAMSTER V-79, Strain/Indicator: V-79/8-AZAGUANINE, Metabolic Activation: NONE, Method: STANDARD PLATE) is “active; positive”.

For the molecule `CCOP(=S)(OCC)Oc1cnc2ccccc2n1`, the mutagenic call is, setting by setting: under setting [1], “inactive; negative”; (Test System: AMES SALMONELLA TYPHIMURIUM, Strain/Indicator: TA98, Metabolic Activation: S-9, NADPH GENERATING SYSTEM, Method: STANDARD PLATE) “inactive; negative”; (Test System: AMES SALMONELLA TYPHIMURIUM, Strain/Indicator: TA102, Metabolic Activation: NONE, Method: STANDARD PLATE) “inactive; negative”; (Test System: AMES SALMONELLA TYPHIMURIUM, Strain/Indicator: TA102, Metabolic Activation: S-9, NADPH GENERATING SYSTEM, Method: STANDARD PLATE) “inactive; negative”; under setting [2], “inactive; negative”; (Test System: AMES SALMONELLA TYPHIMURIUM, Strain/Indicator: TA1535, Metabolic Activation: S-9, NADPH GENERATING SYSTEM, Method: STANDARD PLATE) “inactive; negative”. Further, the mutagenic call is “inactive; negative” under setting [3] and “inactive; negative” (Test System: AMES SALMONELLA TYPHIMURIUM, Strain/Indicator: TA1537, Metabolic Activation: S-9, NADPH GENERATING SYSTEM, Method: STANDARD PLATE).

Turning to `CC(=O)Oc1c(OC(C)=O)c2c([N+](=O)[O-])ccc3c4ccccc4c4cccc1c4c23`, the mutagenic call runs as follows: (Test System: AMES SALMONELLA TYPHIMURIUM, Strain/Indicator: TA98, Metabolic Activation: NONE', Method: STANDARD PLATE) “active; positive”; under setting [4], “active; positive”.

As to `O=[N+]([O-])c1cccc(NS(=O)(=O)c2cccc3cccnc23)c1`, the mutagenic call was “inactive; negative” under setting [1]; “inactive; negative” under setting [5]; “inactive; negative” under setting [4]; “inactive; negative” under setting [6]; “inactive; negative” under setting [2]; “inactive; negative” under setting [7]. Also, the mutagenic call under setting [3] is “inactive; negative” and the mutagenic call under setting [8] was “inactive; negative”.

For the molecule `O=[N+]([O-])c1cc(-c2ccccc2)cc([N+](=O)[O-])c1O`, the mutagenic call (Test System: AMES SALMONELLA TYPHIMURIUM, Strain/Indicator: TA98, Metabolic Activation: NONE, Method: PREINCUBATION) was “active; positive”.

As to `O=C(/C=C/c1ccc(O)c(O)c1)O[C@@H]1C[C@](O)(C(=O)O)C[C@@H](O)[C@H]1O`, the mutagenic call is “inactive; negative” (Test System: AMES SALMONELLA TYPHIMURIUM, Strain/Indicator: TA98, Metabolic Activation: HAMSTER, LIVER, S-9, AROCLOR 1254, Method: STANDARD PLATE); “inactive; negative” under setting [1]; “inactive; negative” under setting [5]; “inactive; negative” (Test System: AMES SALMONELLA TYPHIMURIUM, Strain/Indicator: TA100, Metabolic Activation: HAMSTER, LIVER, S-9, AROCLOR 1254, Method: STANDARD PLATE); “inactive; negative” under setting [4]; “inactive; negative” under setting [6]. Also, the mutagenic call is “inactive; negative” (Test System: AMES SALMONELLA TYPHIMURIUM, Strain/Indicator: TA1535, Metabolic Activation: HAMSTER, LIVER, S-9, AROCLOR 1254, Method: STANDARD PLATE); “inactive; negative” under setting [2]; “inactive; negative” under setting [7]; “inactive; negative” (Test System: AMES SALMONELLA TYPHIMURIUM, Strain/Indicator: TA1537, Metabolic Activation: HAMSTER, LIVER, S-9, AROCLOR 1254, Method: STANDARD PLATE); “inactive; negative” under setting [3]; “inactive; negative” under setting [8]. The mutagenic call is, setting by setting: (Test System: AMES SALMONELLA TYPHIMURIUM, Strain/Indicator: TA1538, Metabolic Activation: HAMSTER, LIVER, S-9, AROCLOR 1254, Method: STANDARD PLATE) “inactive; negative”; under setting [9], “inactive; negative”; (Test System: AMES SALMONELLA TYPHIMURIUM, Strain/Indicator: TA1538, Metabolic Activation: RAT, LIVER, S-9, AROCLOR 1254, Method: STANDARD PLATE) “inactive; negative”; (Test System: MOUSE LYMPHOMA, Strain/Indicator: L5178Y (TK+/TK-), Metabolic Activation: NONE, Method: SUSPENSION/PLATE) “inactive; negative. reevaluation of results: negative”; (Test System: MOUSE LYMPHOMA, Strain/Indicator: L5178Y (TK+/TK-), Metabolic Activation: RAT, LIVER, S-9, AROCLOR 1254, Method: SUSPENSION/PLATE) “active; positive. reevaluation of results: positive”.

For `Oc1cccc(Cl)c1`, the mutagenic call by setting is: (Test System: AMES SALMONELLA TYPHIMURIUM, Strain/Indicator: TA97, Metabolic Activation: NONE, Method: STANDARD PLATE) “active; positive”; (Test System: AMES SALMONELLA TYPHIMURIUM, Strain/Indicator: TA97, Metabolic Activation: RAT, LIVER, S-9, AROCLOR 1254, Method: STANDARD PLATE) “active; positive”; under setting [1], “active; positive”; under setting [5], “active; positive”; under setting [4], “active; positive”; under setting [6], “inactive; negative”. The mutagenic call (Test System: AMES SALMONELLA TYPHIMURIUM, Strain/Indicator: TA104, Metabolic Activation: NONE, Method: STANDARD PLATE) is “inactive; negative” and the mutagenic call (Test System: AMES SALMONELLA TYPHIMURIUM, Strain/Indicator: TA104, Metabolic Activation: RAT, LIVER, S-9, AROCLOR 1254, Method: STANDARD PLATE) was “inactive; negative”.

In the case of `Cc1cccc2cc3ccccc3cc12`, the mutagenic call reads like this: under setting [1], “inactive; negative”; under setting [5], “inactive; negative”; under setting [4], “inactive; negative”; under setting [6], “inactive; negative”.

Regarding `O=C(Nc1cc(Cl)cc(Cl)c1O)c1c(O)c(Cl)cc(Cl)c1Cl`, the mutagenic call is, setting by setting: under setting [1], “inactive; negative”; (Test System: AMES SALMONELLA TYPHIMURIUM, Strain/Indicator: TA98, Metabolic Activation: RAT, LIVER, S-9, KANECHLOR 400, Method: STANDARD PLATE) “inactive; negative”; under setting [4], “inactive; negative”; (Test System: AMES SALMONELLA TYPHIMURIUM, Strain/Indicator: TA100, Metabolic Activation: RAT, LIVER, S-9, KANECHLOR 400, Method: STANDARD PLATE) “inactive; negative”; under setting [2], “inactive; negative”; (Test System: AMES SALMONELLA TYPHIMURIUM, Strain/Indicator: TA1535, Metabolic Activation: RAT, LIVER, S-9, KANECHLOR 400, Method: STANDARD PLATE) “inactive; negative”. The mutagenic call is “inactive; negative” under setting [3]; “inactive; negative” (Test System: AMES SALMONELLA TYPHIMURIUM, Strain/Indicator: TA1537, Metabolic Activation: RAT, LIVER, S-9, KANECHLOR 400, Method: STANDARD PLATE); “inactive; negative” under setting [9]; “inactive; negative” (Test System: AMES SALMONELLA TYPHIMURIUM, Strain/Indicator: TA1538, Metabolic Activation: RAT, LIVER, S-9, KANECHLOR 400, Method: STANDARD PLATE).
